ChEMBL document CHEMBL2046376, “Synthesis and antimicrobial activity of amide derivatives of polyether antibiotic-salinomycin” (2012)
Values after ≈ are worked out from the molar mass of the structure shown. Active and inactive are the calls of the source. No cut-off for these calls is given here.

Assays:
Format in all cases: functional
[1] = system: Staphylococcus aureus; experiment: Antibacterial activity against Staphylococcus aureus NCTC 4163 after 18 hrs by twofold serial agar dilution technique; details: NCTC 4163, 18 h
[2] = system: Candida albicans; experiment: Antifungal activity against Candida albicans ATCC 10231 after 24 hrs by twofold serial agar dilution technique; details: for MIC: ATCC 10231, 24 h
[3] = system: Candida albicans; experiment: Antifungal activity against Candida albicans ATCC 90028 after 24 hrs by twofold serial agar dilution technique; details: for MIC: ATCC 90028, 24 h
[4] = system: Escherichia coli; experiment: Antibacterial activity against Escherichia coli NCTC 8196 after 18 hrs by twofold serial agar dilution technique; details: for MIC: NCTC 8196, 18 h
[5] = system: Staphylococcus epidermidis; experiment: Antibacterial activity against Staphylococcus epidermidis ATCC 12228 after 18 hrs by twofold serial agar dilution technique; details: ATCC 12228, 18 h
[6] = system: Staphylococcus epidermidis; experiment: Antibacterial activity against Staphylococcus epidermidis ATCC 12228 assessed as zone of inhibition at 400 ug/disc after 18 hrs by disc diffusion method; details: ATCC 12228, 18 h, read-out: DIZ
[7] = system: Proteus vulgaris; experiment: Antibacterial activity against Proteus vulgaris NCTC 4635 after 18 hrs by twofold serial agar dilution technique; details: for MIC: NCTC 4635, 18 h
[8] = system: Staphylococcus aureus; experiment: Antibacterial activity against Staphylococcus aureus ATCC 6538 assessed as zone of inhibition at 400 ug/disc after 18 hrs by disc diffusion method; details: ATCC 6538, 18 h, read-out: DIZ
[9] = system: Escherichia coli; experiment: Antibacterial activity against Escherichia coli ATCC 10538 assessed as zone of inhibition at 400 ug/disc after 18 hrs by disc diffusion method; details: ATCC 10538, 18 h, read-out: DIZ
[10] = system: Pseudomonas aeruginosa; experiment: Antibacterial activity against Pseudomonas aeruginosa NCTC 6749 after 18 hrs by twofold serial agar dilution technique; details: for MIC: NCTC 6749, 18 h
[11] = system: Staphylococcus epidermidis; experiment: Antibacterial activity against Staphylococcus epidermidis ATCC 35984 after 18 hrs by twofold serial agar dilution technique; details: ATCC 35984, 18 h
[12] = system: Escherichia coli; experiment: Antibacterial activity against Escherichia coli ATCC 25922 after 18 hrs by twofold serial agar dilution technique; details: ATCC 25922, 18 h
[13] = system: Escherichia coli; experiment: Antibacterial activity against Escherichia coli ATCC 25922 assessed as zone of inhibition at 400 ug/disc after 18 hrs by disc diffusion method; details: ATCC 25922, 18 h, read-out: DIZ
[14] = system: Pseudomonas aeruginosa; experiment: Antibacterial activity against Pseudomonas aeruginosa ATCC 15442 assessed as zone of inhibition at 400 ug/disc after 18 hrs by disc diffusion method; details: ATCC 15442, 18 h, read-out: DIZ
[15] = system: Staphylococcus aureus; experiment: Antibacterial activity against Staphylococcus aureus ATCC 29213 after 18 hrs by twofold serial agar dilution technique; details: ATCC 29213, 18 h
[16] = system: Proteus vulgaris; experiment: Antibacterial activity against Proteus vulgaris NCTC 4635 assessed as zone of inhibition at 400 ug/disc after 18 hrs by disc diffusion method; details: NCTC 4635, 18 h, read-out: DIZ
[17] = system: Bordetella bronchiseptica; experiment: Antibacterial activity against Bordetella bronchiseptica ATCC 4617 assessed as zone of inhibition at 400 ug/disc after 18 hrs by disc diffusion method; details: ATCC 4617, 18 h, read-out: DIZ
[18] = system: Staphylococcus aureus; experiment: Antibacterial activity against Staphylococcus aureus ATCC 25923 assessed as zone of inhibition at 400 ug/disc after 18 hrs by disc diffusion method; details: ATCC 25923, 18 h, read-out: DIZ
[19] = system: Pseudomonas aeruginosa; experiment: Antibacterial activity against Pseudomonas aeruginosa ATCC 15442 after 18 hrs by twofold serial agar dilution technique; details: for MIC: ATCC 15442, 18 h
[20] = system: Staphylococcus aureus; experiment: Antibacterial activity against Staphylococcus aureus NCTC 4163 assessed as zone of inhibition at 400 ug/disc after 18 hrs by disc diffusion method; details: NCTC 4163, 18 h, read-out: DIZ
[21] = system: Staphylococcus aureus; experiment: Antibacterial activity against Staphylococcus aureus ATCC 25923 after 18 hrs by twofold serial agar dilution technique; details: ATCC 25923, 18 h
[22] = system: Pseudomonas aeruginosa; experiment: Antibacterial activity against Pseudomonas aeruginosa NCTC 6749 assessed as zone of inhibition at 400 ug/disc after 18 hrs by disc diffusion method; details: NCTC 6749, 18 h, read-out: DIZ
[23] = system: Pseudomonas aeruginosa; experiment: Antibacterial activity against Pseudomonas aeruginosa ATCC 27853 after 18 hrs by twofold serial agar dilution technique; details: for MIC: ATCC 27853, 18 h
[24] = system: Candida parapsilosis; experiment: Antifungal activity against Candida parapsilosis ATCC 22019 after 24 hrs by twofold serial agar dilution technique; details: for MIC: Lodderomyces parapsilosis, ATCC 22019, 24 h
[25] = system: Staphylococcus aureus; experiment: Antibacterial activity against Staphylococcus aureus ATCC 29213 assessed as zone of inhibition at 400 ug/disc after 18 hrs by disc diffusion method; details: ATCC 29213, 18 h, read-out: DIZ
[26] = system: Bordetella bronchiseptica; experiment: Antibacterial activity against Bordetella bronchiseptica ATCC 4617 after 18 hrs by twofold serial agar dilution technique; details: for MIC: ATCC 4617, 18 h
[27] = system: Staphylococcus aureus; experiment: Antibacterial activity against Staphylococcus aureus ATCC 6538 after 18 hrs by twofold serial agar dilution technique; details: ATCC 6538, 18 h
[28] = system: Escherichia coli; experiment: Antibacterial activity against Escherichia coli ATCC 10538 after 18 hrs by twofold serial agar dilution technique; details: for MIC: ATCC 10538, 18 h
[29] = system: Escherichia coli; experiment: Antibacterial activity against Escherichia coli NCTC 8196 assessed as zone of inhibition at 400 ug/disc after 18 hrs by disc diffusion method; details: NCTC 8196, 18 h, read-out: DIZ
[30] = system: Staphylococcus epidermidis; experiment: Antibacterial activity against Staphylococcus epidermidis ATCC 35984 assessed as zone of inhibition at 400 ug/disc after 18 hrs by disc diffusion method; details: ATCC 35984, 18 h, read-out: DIZ
[31] = system: Pseudomonas aeruginosa; experiment: Antibacterial activity against Pseudomonas aeruginosa ATCC 27853 assessed as zone of inhibition at 400 ug/disc after 18 hrs by disc diffusion method; details: ATCC 27853, 18 h, read-out: DIZ

CC[C@@H](C(=O)[C@@H](C)[C@@H](O)[C@H](C)[C@@H]1O[C@@H]([C@@H](CC)C(=O)NCc2ccccc2)CC[C@@H]1C)[C@H]1O[C@]2(C=C[C@@H](O)[C@]3(CC[C@@](C)([C@H]4CC[C@](O)(CC)[C@H](C)O4)O3)O2)[C@H](C)C[C@@H]1C
MIC [1]: ≥ 256 µg/mL
MIC [2]: ≥ 256 µg/mL
MIC [3]: ≥ 256 µg/mL
MIC [4]: ≥ 256 µg/mL
MIC [5]: ≥ 256 µg/mL
zone of inhibition at 400 µg/disc [6]: 10 mm
MIC [7]: ≥ 256 µg/mL
zone of inhibition at 400 µg/disc [8]: 10 mm
zone of inhibition at 400 µg/disc [9]: 10 mm
MIC [10]: ≥ 256 µg/mL
MIC [11]: ≥ 256 µg/mL
MIC [12]: ≥ 256 µg/mL
zone of inhibition at 400 µg/disc [13]: 10 mm
zone of inhibition at 400 µg/disc [14]: 10 mm
MIC [15]: ≥ 256 µg/mL
zone of inhibition at 400 µg/disc [16]: 10 mm
zone of inhibition at 400 µg/disc [17]: 10 mm
zone of inhibition at 400 µg/disc [18]: 10 mm
MIC [19]: ≥ 256 µg/mL
zone of inhibition at 400 µg/disc [20]: 10 mm
MIC [21]: ≥ 256 µg/mL
zone of inhibition at 400 µg/disc [22]: 10 mm
MIC [23]: ≥ 256 µg/mL
MIC [24]: ≥ 256 µg/mL
zone of inhibition at 400 µg/disc [25]: 10 mm
MIC [26]: ≥ 256 µg/mL
MIC [27]: ≥ 256 µg/mL
MIC [28]: ≥ 256 µg/mL
zone of inhibition at 400 µg/disc [29]: 10 mm
zone of inhibition at 400 µg/disc [30]: 10 mm
zone of inhibition at 400 µg/disc [31]: 10 mm

O=C(O)c1cn(C2CC2)c2cc(N3CCNCC3)c(F)cc2c1=O [CIPROFLOXACIN]
Activity [2]: inactive
Activity [3]: inactive
Activity [4]: inactive
zone of inhibition at 400 µg/disc [6]: 30 mm
Activity [7]: inactive
zone of inhibition at 400 µg/disc [8]: 28 mm
Activity [10]: inactive
MIC [11]: 0.25 µg/mL (≈ 0.754 µM)
MIC [15]: 0.25 µg/mL (≈ 0.754 µM)
zone of inhibition at 400 µg/disc [18]: 26 mm
Activity [19]: inactive
zone of inhibition at 400 µg/disc [20]: 26 mm
Activity [23]: inactive
Activity [24]: inactive
zone of inhibition at 400 µg/disc [25]: 22 mm
Activity [26]: inactive
Activity [28]: inactive
zone of inhibition at 400 µg/disc [30]: 32 mm

CC[C@@H](C(=O)[C@@H](C)[C@@H](O)[C@H](C)[C@@H]1O[C@@H]([C@@H](CC)C(=O)NCCc2c[nH]c3ccccc23)CC[C@@H]1C)[C@H]1O[C@]2(C=C[C@@H](O)[C@]3(CC[C@@](C)([C@H]4CC[C@](O)(CC)[C@H](C)O4)O3)O2)[C@H](C)C[C@@H]1C
MIC [1]: ≥ 256 µg/mL
MIC [2]: ≥ 256 µg/mL
MIC [3]: ≥ 256 µg/mL
MIC [4]: ≥ 256 µg/mL
MIC [5]: ≥ 256 µg/mL
zone of inhibition at 400 µg/disc [6]: 10 mm
MIC [7]: ≥ 256 µg/mL
zone of inhibition at 400 µg/disc [8]: 10 mm
zone of inhibition at 400 µg/disc [9]: 10 mm
MIC [10]: ≥ 256 µg/mL
MIC [11]: ≥ 256 µg/mL
MIC [12]: ≥ 256 µg/mL
zone of inhibition at 400 µg/disc [13]: 10 mm
zone of inhibition at 400 µg/disc [14]: 10 mm
MIC [15]: ≥ 256 µg/mL
zone of inhibition at 400 µg/disc [16]: 10 mm
zone of inhibition at 400 µg/disc [17]: 10 mm
zone of inhibition at 400 µg/disc [18]: 10 mm
MIC [19]: ≥ 256 µg/mL
zone of inhibition at 400 µg/disc [20]: 10 mm
MIC [21]: ≥ 256 µg/mL
zone of inhibition at 400 µg/disc [22]: 10 mm
MIC [23]: ≥ 256 µg/mL
MIC [24]: ≥ 256 µg/mL
zone of inhibition at 400 µg/disc [25]: 10 mm
MIC [26]: ≥ 256 µg/mL
MIC [27]: ≥ 256 µg/mL
MIC [28]: ≥ 256 µg/mL
zone of inhibition at 400 µg/disc [29]: 10 mm
zone of inhibition at 400 µg/disc [30]: 10 mm
zone of inhibition at 400 µg/disc [31]: 10 mm

CC[C@@H](C(=O)[C@@H](C)[C@@H](O)[C@H](C)[C@@H]1O[C@@H]([C@@H](CC)C(=O)NCCOCCOCCOC)CC[C@@H]1C)[C@H]1O[C@]2(C=C[C@@H](O)[C@]3(CC[C@@](C)([C@H]4CC[C@](O)(CC)[C@H](C)O4)O3)O2)[C@H](C)C[C@@H]1C
MIC [1]: ≥ 256 µg/mL
MIC [2]: ≥ 256 µg/mL
MIC [3]: ≥ 256 µg/mL
MIC [4]: ≥ 256 µg/mL
MIC [5]: ≥ 256 µg/mL
zone of inhibition at 400 µg/disc [6]: 10 mm
MIC [7]: ≥ 256 µg/mL
zone of inhibition at 400 µg/disc [8]: 10 mm
zone of inhibition at 400 µg/disc [9]: 10 mm
MIC [10]: ≥ 256 µg/mL
MIC [11]: ≥ 256 µg/mL
MIC [12]: ≥ 256 µg/mL
zone of inhibition at 400 µg/disc [13]: 10 mm
zone of inhibition at 400 µg/disc [14]: 10 mm
MIC [15]: ≥ 256 µg/mL
zone of inhibition at 400 µg/disc [16]: 10 mm
zone of inhibition at 400 µg/disc [17]: 10 mm
zone of inhibition at 400 µg/disc [18]: 10 mm
MIC [19]: ≥ 256 µg/mL
zone of inhibition at 400 µg/disc [20]: 10 mm
MIC [21]: ≥ 256 µg/mL
zone of inhibition at 400 µg/disc [22]: 10 mm
MIC [23]: ≥ 256 µg/mL
MIC [24]: ≥ 256 µg/mL
zone of inhibition at 400 µg/disc [25]: 10 mm
MIC [26]: ≥ 256 µg/mL
MIC [27]: ≥ 256 µg/mL
MIC [28]: ≥ 256 µg/mL
zone of inhibition at 400 µg/disc [29]: 10 mm
zone of inhibition at 400 µg/disc [30]: 10 mm
zone of inhibition at 400 µg/disc [31]: 10 mm
